“And” between values parts separate entries of the source, which are not always exact repeats. Equal entries are not always repeated.
What was measured:
PANC-1 = assay: MTT cell survival rate, PANC-1; type: cell-based; settings: Homo sapiens, PANC-1, 24 hours, read-out: IC50 (concentration of 50% inhibition)
Experimental: (§1) MTT (3-[4,5-dimethylthiahiazo-2-yl]-2,4-dipheny-tetrazolium bromide) was used to determine if the cell survival rate of different pancreatic cancer cell lines will be influenced when being treated with (Z)-butylidenephthalide. Human pancreatic cancer cell lines (3×10^3 cells/well), PANC-1 and PACA-2, were cultured in a 96-well micro-culture plate over night. Different concentrations of (Z)-butylidenephthalide (0 μg/ml, 10 μg/ml, 25 μg/ml, 50 μg/ml, 75 μg/ml, or 100 μg/ml) or (E)-butylidenephthalide (0 μg/ml, 50 μg/ml, 100 μg/ml, 200 μg/ml, 400 μg/ml, or 800 μg/ml), or 50 μM gemcitabine (a traditional medicine for treating pancreatic cancer, as a control group) were added into each well of the 96-well micro-culture plate along the inner wall, and cultured for 24 hours. The medium was removed, and then a medium containing 500 μg/ml MTT (200 μl) was added and cultured for 4 hours. The medium was removed, and then 200 μl of DMSO was added into the plate. The absorbance of the sample in each well was measured by a spectrophotometer at 570 nm wavelength. The data was calculated to determine the survival rate and IC50 (concentration of 50% inhibition) of each pancreatic cancer cell line treated with (Z)-butylidenephthalide and (E)-butylidenephthalide. The results are shown in FIG. 1A ((E)-butylidenephthalide) and FIG. 1B ((Z)-butylidenephthalide).

PACA-2 [1] = assay: MTT cell survival rate, PACA-2; type: cell-based; settings: Homo sapiens, PACA-2, 24 hours, read-out: IC50 (concentration of 50% inhibition)
Experimental: as §1

PACA-2 [2] = assay: Micro RNA interference test, cellular survival rate of PACA-2; type: cell-based, human; settings: PACA-2, 133 μM Z-BP
Experimental: Human pancreatic cancer cell lines, PACA-2, was cultured with p(CPP-SA)-Z-BP comprising 0 w % (as a control group), 17.5 w %, or 25 w % (Z)-butylidenephthalide, respectively, for 24 hours, and then the tumor cell morphology and cellular survival rate were observed.
In addition, the human pancreatic cancer cell line, PACA-2, was treated with 10 nM or 50 nM of Nurr1 micro RNA, and then treated with 133 μM Z-BP. Then, the cellular survival rate was observed using the same method as described in Example 4.

[3] = test system: gene expression levels of NOR-1, Nurr1, and Nur77 in PANC-1; assay: RT-PCR of apoptosis-related gene expression, PANC-1; type: cell-based, Human
Experimental: (§2) In this experiment, pancreatic cancer cell lines, PANC-1 and PACA-2, were treated with 100 μg/ml Z-BP for 0, 1, 3, 6, or 24 hours, and then, analyzed by reverse transcriptase-polymerase chain reaction (RT-PCR) (FIG. 6A) to analyze the effects of Z-BP on the gene expression levels of NOR-1, Nurr1, and Nur77 in the pancreatic cancer cell line. In addition, pancreatic cancer cell lines, PANC-1 and PACA-2, were treated with different concentrations of Z-BP for 3 hours, and then, analyzed by RT-PCR (FIG. 6B). The Glyceraldehyde 3-phosphate dehydrogenase (GAPDH) was used as the control group.

[4] = test system: Nur77 gene pathway-related and apoptosis-related proteins in PACA-2; assay: Western blotting of Nur77 pathway-related and apoptosis-related proteins in PACA-2; type: cell-based, Human
Experimental: Human pancreatic cancer cell line, PACA-2, […], and then the expression levels of the Nur77 gene involved pathway-related proteins were analyzed by Western blotting, including Pan-PKC, AKT, ERK, and JNK (FIG. 8A). In addition, the expression levels of apoptosis-related proteins were also analyzed, including poly(ADP-ribose) polymerase (PARP), cleaved poly(ADP-ribose) polymerase (cPARP), caspase-3 (FIG. 8B). β-actin was used as the control group.

[5] = test system: gene expression levels of NOR-1, Nurr1, and Nur77 in PACA-2; assay: RT-PCR of apoptosis-related gene expression, PACA-2; type: cell-based, Human
Experimental: as §2

Nurr1 RNA in PACA-2 = assay: Micro RNA interference test, RT-PCR of Nurr1 RNA in PACA-2; type: cell-based, human; settings: PACA-2, 133 μM Z-BP
Experimental: The RNA expression of Nurr1 in the human pancreatic cancer cell line, PACA-2, was inhibited by Micro RNA interference technology. The cells were treated with 133 μM Z-BP. Then, the cells were analyzed by RT-PCR to detect the changes in the expression of Nurr1 RNA in the cells. As the results shown in FIG. 7A, when PACA-2 cells were treated with 50 nM Nurr1 micro RNA, about 50% of the Nurr1 induced by Z-BP was inhibited.

[6] = PANC-1, 100 μg/ml Z-BP, 1 to 3 hours
[7] = PACA-2, Z-BP for 24 hours or 48 hours
[8] = PACA-2, 100 μg/ml Z-BP, 1 to 3 hours

Row | SMILES | IC50 (PANC-1) | IC50 (PACA-2 [1]) | cellular survival rate of PACA-2 cells (PACA-2 [2]) | mRNA expression level of NOR-1 [3, 6] | mRNA expression level of Nurr1 [3, 6] | mRNA expression level of Nurr1 ([3]; PANC-1, different concentrations of Z-BP, 3 hours) | expression level of phospho-AKT (Pi-AKT) ([4]; PACA-2, Z-BP for 180 minutes) | expression level of phospho-JNK (Pi-SAPK/JNK) ([4]; PACA-2, Z-BP for 180 minutes) | expression level of PARP [4, 7] | expression level of cPARP [4, 7] | expression level of caspase-3 [4, 7] | mRNA expression level of NOR-1 [5, 8] | mRNA expression level of Nurr1 [5, 8] | mRNA expression level of Nurr1 ([5]; PACA-2, different concentrations of Z-BP, 3 hours) | expression of Nurr1 (Nurr1 RNA in PACA-2)
1 | CCC/C=C1/OC(=O)c2ccccc21 [(E)-butylidenephthalide, reference compound] | ~257 µg/mL and ~1.37 mM | ~162 µg/mL and ~864 µM | – | – | – | – | – | – | – | – | – | – | – | – | –
2 | CCC/C=C1\OC(=O)c2ccccc21 [(Z)-butylidenephthalide] | ~45 µg/mL and ~234 µM | ~25 µg/mL and ~133 µM | reduce the cellular survival rate | increased | increased | increased | increased | increased | increased | increased | increased | increased | increased | increased | increase the expression of Nurr1

— patent publication US9872912B2, “Method for treating pancreatic cancer” (CHINA MEDICAL UNIVERSITY, priority 2014, dated 2018)
